Data from patent US20150050682A1, “DIRECT ASSAY OF THIOREDOXIN REDUCTASE ACTIVITY” (University of Vermont and State Agricultural College, priority 2013, published 2015).

What was measured:
[1] = tested on: thioredoxin reductase (TR); experiment: Selenocystine TR assay (SC-TR assay); assay type: biochemical, mouse; settings: for Efficiency of reduction by TR: L- versus racemic selenocystine as substrate; for Inhibition of TR activity (NADPH turnover, A340): C10 whole cell lysates, FIG. 2B
Description: Selenocystine TR assay. Cells were plated into 60 mm tissue culture dishes and the following day were washed with ice-cold 1× phosphate buffered saline (PBS) and lysed in the culture dish by adding either TE Buffer (50 mM Tris/HCl pH 7.5, 1 mM EDTA) or NP-40 lysis buffer (150 mM NaCl, 50 mM Tris pH 8.0, 1% NP-40, 1 μg/mL leupeptin, 1 μg/mL aprotinin, 1 mM NaF, 1 mM NaVO3, 1 mM PMSF) as indicated in the text. Cell lysates were scraped from culture dishes on ice and transferred to 1.5 mL microcentrifuge tubes. TE buffer lysates were sonicated at 4° C. for 30 sec with 1-2 sec pulses using a sonic dismembrator. TE and NP-40 lysates were centrifuged for 10 min at 14,000 rpm at 4° C. and protein concentrations of the supernatants were determined by reading the absorption at 595 nm of Bradford reagent. A total reaction volume of 100 μl was assembled in a clear 96-well round bottom microplate containing the following: (i) master mix containing 1 mM NADPH and 2 mM selenocystine (SC) in ddH2O (addition of 40 μl of master mix to 100 μl reaction volume yields final concentrations of 400 μM and 800 μM respectively), (ii) 25 μg or the largest practical amount of protein, (iii) TE or NP-40 lysis buffer. Controls for each sample included protein only control, protein and NADPH control, and protein and SC control. Control master mixes contained: (i) 2 mM NADPH in ddH2O (addition of 20 μl to 100 μl reaction volume yields final concentration of 400 μM), (ii) 2 mM SC prepared as described above (addition of 40 μl to 100 μl reaction volume yields final concentration of 800 μM).
Each master mix was separately placed into a clean, sterile pipet basin and pipetted quickly into the wells of a 96-well microplate with a multichannel pipetter making sure to avoid bubbles. This approach was used in order that each sample was exposed to the master mix at the same time to ensure homogeneity of results. The plate was read in 30 sec intervals over a 20 min time period at 340 nm on a Synergy HT Microplate Reader™ (BioTek). Because the assay monitors the consumption of NADPH at 340 nm, an activity can be calculated by using Beer's Law and an extinction coefficient of 6,220 M^−1 cm^−1 for NADPH. The activity can be reported as mol NADPH consumed per min. Bradford assays for total protein concentration determination can be performed directly in each well of the 96-well plate. If this is done, then the activity can be reported as mol NADPH consumed per min per mg of total protein. For the data presented in FIGS. 2 and 5, 1 unit of TR activity is defined as the amount of TR that will consume 1 nmol of NADPH per min.

[2] = tested on: thioredoxin reductase (TR); experiment: Discontinuous insulin end-point TR assay; assay type: biochemical, mouse; settings: for Inhibition of TR activity: C10 whole cell lysates, end-point TR assay, FIG. 2A
Description: Discontinuous insulin end-point assay. Cell lysates were prepared in TE buffer as described above and the sonicated lysates were centrifuged for 10 min at 14,000 rpm at 4° C. Supernatants were transferred to fresh 1.5 mL microcentrifuge tubes and protein concentrations were determined by a Bradford assay. A total reaction volume of […] was assembled by addition of 20 μL master mix to 20 μL of 25 μM E. coli Trx solution. The master mix contained 50 mM Tris/Cl pH 7.5, 1 mM EDTA, 900 μM NADPH (257 μM final), and 4.5 mg/mL insulin (1.3 mg/mL final). After addition of all of the components to a cuvette, the reactions were incubated at room temperature for 60 min and terminated by the addition of 930 μL of 6 M guanidine•HCL containing 1 mM 5,5′-dithio-bis(2-nitrobenzoic acid) (DTNB) solution prepared in ethanol; activity was detected by reading absorbance at 412 nm in a spectrophotometer. TR activity was determined by calculating the difference between identical samples +/− Trx. Here the activity is expressed as arbitrary units as determined by the raw A412 reading. Alternatively, the number of units can be calculated by using Beer's Law and an extinction coefficient of 13,600 M^−1 cm^−1 for the TNB anion. One unit of TR activity is the amount of enzyme catalyzing the reduction of 1 μM of DTNB per min (formation of 2 μmol TNB anion).

[3] = target: T1, glutathione reductase (Homo sapiens, UniProt P00390); experiment: Reduction of selenocystine by glutathione reductase in vitro; assay type: biochemical; settings: same experimental conditions under which TR reduces selenocystine
T1 sequence (P00390 44-522): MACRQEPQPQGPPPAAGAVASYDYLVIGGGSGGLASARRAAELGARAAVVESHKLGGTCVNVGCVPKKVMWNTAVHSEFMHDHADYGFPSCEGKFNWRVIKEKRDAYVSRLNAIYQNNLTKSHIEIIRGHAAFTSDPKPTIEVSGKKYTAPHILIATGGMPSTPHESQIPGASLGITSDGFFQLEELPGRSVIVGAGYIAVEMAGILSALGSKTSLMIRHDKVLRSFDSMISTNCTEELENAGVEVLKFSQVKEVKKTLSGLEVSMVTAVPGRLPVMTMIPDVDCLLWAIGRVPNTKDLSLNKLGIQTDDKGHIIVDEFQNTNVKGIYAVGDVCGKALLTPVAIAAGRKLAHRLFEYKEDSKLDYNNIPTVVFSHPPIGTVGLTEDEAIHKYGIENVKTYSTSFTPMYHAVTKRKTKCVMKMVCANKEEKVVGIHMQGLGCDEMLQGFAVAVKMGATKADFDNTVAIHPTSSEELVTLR

[4] = tested on: TR1; experiment: Immunoblot of TR1 expression after siRNA knockdown in C10 cells; assay type: cell-based, mouse; settings: Western blot, FIG. 3E
Source text: TR over-expression and gene silencing. Full length TR1 was amplified from pCMV6-XL4 vector by PCR using specific forward (5′-[…]-3′) and reverse (5′-[…]-3′) primers and subsequently cloned into pcDNA 3.1 mammalian expression vector. Insertion of WT-TR1 full-length cDNA, including the 3′ SECIS element, into pcDNA 3.1 was confirmed by sequencing using the appropriate forward and reverse primer sets (T7 Forward: BGH Reverse). WT-TR1 or empty pcDNA 3.1 vector were transfected into C10 cells according to manufacturer's protocol. Specific siRNA to TR1 (si-TR1, 5′-[…]-3′) and a control (“scramble”) RNA (5′-[…]-3′) were introduced into C10 cells following the manufacturers guidelines (Dharmacon).
Immunoblotting. Equal protein amounts from cell lysates were separated on 10% gels by SDS-PAGE. Proteins were transferred to PVDF membrane for immunoblotting, and membranes then were blocked in 5% milk (Tris buffered saline with 0.1% Tween, TBST) for 1 hr at room temperature. Anti-TR1 (1:1000) anti-Trxl (1:2000) and anti-actin (1:5000) antibodies were diluted in 5% milk/TBST and incubated with membranes for 1 hr at room temperature. […] Membranes were washed 5× with TBST and HRP secondary antibodies were detected using Enhanced Chemiluminescent™ solution and collected on X-ray film.

Compound: N[C@@H](C[Se][Se]C[C@H](N)C(=O)O)C(=O)O (racemic) [racemic selenocystine, selenocystine]
- Efficiency of reduction by TR [1]: equal efficiencies

Compound: N[C@@H](C[Se][Se]C[C@H](N)C(=O)O)C(=O)O [L-selenocystine]
- Efficiency of reduction by TR [1]: equal efficiencies

Compound: C=CC=O [acrolein]
- Inhibition of TR activity in cells over expressing TR1 and TR2 ([1]; C10 cells transfected with TR1 and TR2, TE buffer lysates, SC-TR assay, FIG. 2D): inhibited to an equal extent
- Inhibition of TR activity (NADPH turnover, A340) ([1]; SC-TR assay): complete inhibition
- Inhibition of TR activity (NADPH turnover, A340) ([1]; SC-TR assay, listed as Acrolein): completely inhibits
- Inhibition of TR activity in cells over expressing TR1 and TR2 ([2]; C10 cells transfected with TR1 and TR2, TE buffer lysates, end-point assay, FIG. 2C): inhibited to an equal extent
- Inhibition of TR activity [2]: inhibition of total TR activity
- Inhibition of TR activity ([2]; listed as Acrolein): completely inhibits

Compound: CC(=O)OC[C@H]1O[C@@H]([S-])[C@H](OC(C)=O)[C@@H](OC(C)=O)[C@@H]1OC(C)=O.CCP(CC)CC.[Au+] [auranofin]
- Sensitivity of TR activity to inhibitor, TE buffer versus NP-40 buffer ([1]; lysates from treated C10 cells prepared in TE buffer or NP-40 lysis buffer, FIG. 4): equivalent

Compound: N[C@@H](C[Se][Se]C[C@H](N)C(=O)O)C(=O)O [selenocystine]
- Reduction of substrate by glutathione reductase [3]: does not reduce

Compound: siRNA: Specific siRNA to TR1 (si-TR1, 5′-CCAUAGAGGGCGAAUUUAAUU-3′) (listed as RNA, chemistry not given here)
- TR1 protein expression after knockdown [4]: reduced the expression of TR1 for up to 48 hrs
- TR activity after knockdown of TR1 ([1]; C10 cells transfected with siRNA, SC-TR assay, FIG. 3A): reduced TR activity below control levels
